SMILES strings stand for the structures.

Usually IC50 stands for the concentration needed to halve the response being measured. Low readings indicate inhibition by little substance, high ones a need for much substance.

15-PGDH, sequence (P15428 whole entry): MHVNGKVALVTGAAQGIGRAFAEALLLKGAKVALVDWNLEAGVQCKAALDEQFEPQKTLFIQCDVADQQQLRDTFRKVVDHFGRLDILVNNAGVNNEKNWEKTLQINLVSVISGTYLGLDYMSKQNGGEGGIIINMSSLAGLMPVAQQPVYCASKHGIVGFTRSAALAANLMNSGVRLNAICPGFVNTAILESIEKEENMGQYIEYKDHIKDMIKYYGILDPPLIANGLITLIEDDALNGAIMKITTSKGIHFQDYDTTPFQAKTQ

One assay addresses 15-PGDH (Homo sapiens (Human), UniProt P15428). Description: 15-PGDH inhibitory activity (NADH at 340 nm). Format: biochemical. To be noted: concentration inhibiting 50% of 15-PGDH activity; purified 15-PGDH, 21 μM PGE2, 0.25 mM NAD+. Here is the method: The 15-PGDH cDNA plasmid containing the BamHI of the pGEX-2T expression vector and EcoRI restriction enzyme sites was transfected into E. coli BL-21 LysS by using conventional methods used in the art. Then, the transfected cells were cultured in an LB medium (500 ml) containing 50 μg/ml of ampicillin at a temperature of 37° C. and at a rate of 220 rpm until the OD600 reached 0.6. Then, isopropyl beta-D-thiogalactoxide (1 mM) was added and the cells were further cultured at the temperature of 25° C. for 12 hours. The cells were then centrifuged at the gravity of 4,000 g for 30 minutes at a temperature of 4° C. to collect a cell pellet. The cell pellet was dissolved in 20 ml of cell lysis buffer (containing 1×PBS buffer (pH 7.4): 1 mM EDTA and 0.1 mM DTT) and sonicated at a temperature of 4° C. for 14×10 s. The digested cells were centrifuged at the gravity of 4,000 g for 20 minutes at a temperature of 4° C. The supernatant was then slowly loaded onto a glutathione-sepharose 4B column equilibrated at a temperature of 4° C. with cell lysis buffer [containing 1×PBS buffer (pH 7.4), 1 mM EDTA, and 0.1 mM DTT]. Washing was performed thereon by using a dissolution buffer until the OD280 reached 0.005 or less. Then, 15-PGDH was eluted from the glutathione-sepharose 4B column at room temperature for 5 minutes by using an elution buffer [containing 50 mM Tris-HCl (pH 8.0), 10 mM reduced glutathione, 1 mM EDTA, and 0.1 mM DTT). The concentration of the purified enzyme was measured, and the purification level thereof was confirmed by SDS-PAGE.
That is, the cells were treated with a solution including 50 mM Tris-HCl (pH 7.5), 0.1 mM DTT, 0.25 mM (NAD+), 10 μg of purified 15-PGDH enzyme, 21 μM PGE2. and various concentrations (0.0001 μM to 64 μM) of the derivative compound according to the present disclosure. In this case, the total volume of the solution was 2 ml. Then, the absorbance of the reaction mixture was recorded at the wavelength of 340 nm. To measure the activity of the derivative compounds according to the present disclosure, which is an inhibitor of 15-PGDH, the average value of NADH absorbance at 340 nm at various concentrations was obtained from a standard curve.
For the molecule `O=C1NC(=O)/C(=C/c2ccc(OC(=O)C3CC3)cc2Cl)S1` [Compound 91, (Z)-3-chloro-4-((2,4-dioxothiazolidin-5-ylidene)methyl)phenyl cyclopropanecarboxylate], the IC50 came out at 1080 nM. That is a single-digit micromolar value.
`O=C(CCCC1CCCCC1)Oc1ccc(/C=C2\SC(=O)NC2=O)cc1Cl` [Compound 9, (Z)-2-chloro-4-((2,4-dioxothiazolidin-5-ylidene)methyl)phenyl 4-cyclohexylbutanoate] came in with an IC50 of 20.2 nM.
For the molecule `O=C(CCC1CCCC1)Oc1ccc(/C=C2\SC(=O)NC2=O)cc1Cl` [Compound 5, (Z)-2-chloro-4-((2,4-dioxothiazolidin-5-ylidene)methyl)phenyl 3-cyclopentylpropanoate], the IC50 amounted to 30.5 nM.
On the same count and under the same terms, next, `COc1cc(/C=C2\SC(=O)NC2=O)ccc1OC(=O)CCCC1CCCCC1` [Compound 39, (Z)-4-((2,4-dioxothiazolidin-5-ylidene)methyl)-2-methoxyphenyl 4-cyclohexylbutanoate]: 17.5 nM.
Still for that read-out and setting: then `O=C(O)c1ccccc1.O=C1NC(=O)/C(=C/c2ccc(OC(=O)c3ccccc3)cc2Cl)S1` [Compound 101, (Z)-3-chloro-4-((2,4-dioxothiazolidin-5-ylidene)methyl)phenyl benzoate], with 45.1 nM.
In turn, `O=C(CCCCc1ccccc1)Oc1ccc(/C=C2\SC(=O)NC2=O)cc1Cl` [Compound 15, (Z)-2-chloro-4-((2,4-dioxothiazolidin-5-ylidene)methyl)phenyl 5-phenylpentanoate] gave an IC50 of 44 nM.
The same measure, in the same setting: then `CCOc1cc(/C=C2\SC(=O)NC2=O)ccc1OC(=O)CCCCc1ccccc1` [Compound 60, (Z)-4-((2,4-dioxothiazolidin-5-ylidene)methyl)-2-ethoxyphenyl 5-phenylpentanoate], with 58.4 nM; and `O=C1NC(=O)/C(=C/c2ccc(OC(=O)C3CCCC3)c(Br)c2)S1` [Compound 18, (Z)-2-bromo-4-((2,4-dioxothiazolidin-5-ylidene)methyl)phenyl cyclopentanecarboxylate], with 50 nM; and `O=C(CCc1ccccc1)Oc1cccc(/C=C2\SC(=O)NC2=O)c1Cl` [Compound 88, (Z)-2-chloro-3-((2,4-dioxothiazolidin-5-ylidene)methyl)phenyl 3-phenylpropanoate], with 22.5 nM.
`O=C(O)c1ccccc1.O=C1NC(=O)/C(=C/c2ccc(OC(=O)c3ccccc3)c(Cl)c2)S1` [Compound 11, (Z)-2-chloro-4-((2,4-dioxothiazolidin-5-ylidene)methyl)phenyl benzoate] yielded an IC50 of 31.9 nM. This IC50 and that of the molecule before are within 1.5-fold of each other.
In turn, `O=C(CCCCC1CCCCC1)Oc1ccc(/C=C2\SC(=O)NC2=O)cc1` [Compound 70, (Z)-4-((2,4-dioxothiazolidin-5-ylidene)methyl)phenyl 5-cyclohexylpentanoate] showed an IC50 of 50.4 nM.

In another assay the test system is A549 cells. Briefly: Measurement of PGE2 concentration in A549 cell medium (ELISA). To be noted: PGE2 concentration versus PBS control, 5 μM, 12 hours. Format: cell-based, human. Here is the method:
A549 cells were subcultured in RPMI 1640 medium (containing+8% fetal bovine serum (FBS) and antibiotic-antimycotic (AA)) for one week, and then, inoculated in a 6-well plate at 2.5×10^5 cells/mL (5×10^5 cells/well) and cultured for 24 hours in a 5% CO2 incubator at a temperature of 37° C. A549 cells are adenocarcinomic human alveolar basal epithelial cells which are derived from lung tissues. When cells were grown to about 80% confluence, a 15-PGDH inhibitor in 1×PBS buffer was injected at a concentration of 5 μM. To compare the results, the same amount of 1×PBS buffer was injected into a negative control, and, the treated cells were cultured in 5% CO2 incubator. After 12 hours, the medium was collected and the collected medium was assayed to measure PGE2 concentration by using an ELISA Kit (Abcam) according to the manufacturer's instructions. The concentration may be expressed as an exact value by plotting the calibration curve by using the absorbance value after diluting the standard in the medium by concentration.
On the technique in general: ELISA stands for enzyme-linked immunosorbent assay.
On to `O=C1NC(=O)/C(=C/c2ccc(OC(=O)C3CC3)cc2Cl)S1` [Compound 91, (Z)-3-chloro-4-((2,4-dioxothiazolidin-5-ylidene)methyl)phenyl cyclopropanecarboxylate], for which the Increment % is recorded as −4.5498%.
Consider `O=C(CCCC1CCCCC1)Oc1ccc(/C=C2\SC(=O)NC2=O)cc1Cl` [Compound 9, (Z)-2-chloro-4-((2,4-dioxothiazolidin-5-ylidene)methyl)phenyl 4-cyclohexylbutanoate], for which the Increment % worked out at 189.34%.
The same measure, in the same setting: next, `O=C(CCC1CCCC1)Oc1ccc(/C=C2\SC(=O)NC2=O)cc1Cl` [Compound 5, (Z)-2-chloro-4-((2,4-dioxothiazolidin-5-ylidene)methyl)phenyl 3-cyclopentylpropanoate]: 83.07%; `COc1cc(/C=C2\SC(=O)NC2=O)ccc1OC(=O)CCCC1CCCCC1` [Compound 39, (Z)-4-((2,4-dioxothiazolidin-5-ylidene)methyl)-2-methoxyphenyl 4-cyclohexylbutanoate]: 220.24%; `O=C(O)c1ccccc1.O=C1NC(=O)/C(=C/c2ccc(OC(=O)c3ccccc3)cc2Cl)S1` [Compound 101, (Z)-3-chloro-4-((2,4-dioxothiazolidin-5-ylidene)methyl)phenyl benzoate]: 79.4871%.
In the case of `O=C(CCCCc1ccccc1)Oc1ccc(/C=C2\SC(=O)NC2=O)cc1Cl` [Compound 15, (Z)-2-chloro-4-((2,4-dioxothiazolidin-5-ylidene)methyl)phenyl 5-phenylpentanoate], the Increment % is 84.11%.
With `CCOc1cc(/C=C2\SC(=O)NC2=O)ccc1OC(=O)CCCCc1ccccc1` [Compound 60, (Z)-4-((2,4-dioxothiazolidin-5-ylidene)methyl)-2-ethoxyphenyl 5-phenylpentanoate], the Increment % is on record as 88.87%.
Take `O=C1NC(=O)/C(=C/c2ccc(OC(=O)C3CCCC3)c(Br)c2)S1` [Compound 18, (Z)-2-bromo-4-((2,4-dioxothiazolidin-5-ylidene)methyl)phenyl cyclopentanecarboxylate]: the Increment % is listed as −21.7%.
On to `O=C(CCc1ccccc1)Oc1cccc(/C=C2\SC(=O)NC2=O)c1Cl` [Compound 88, (Z)-2-chloro-3-((2,4-dioxothiazolidin-5-ylidene)methyl)phenyl 3-phenylpropanoate], for which the Increment % is listed as 113.47%.
The same measure, in the same setting: next, `O=C(O)c1ccccc1.O=C1NC(=O)/C(=C/c2ccc(OC(=O)c3ccccc3)c(Cl)c2)S1` [Compound 11, (Z)-2-chloro-4-((2,4-dioxothiazolidin-5-ylidene)methyl)phenyl benzoate]: −78.32%; `O=C(CCCCC1CCCCC1)Oc1ccc(/C=C2\SC(=O)NC2=O)cc1` [Compound 70, (Z)-4-((2,4-dioxothiazolidin-5-ylidene)methyl)phenyl 5-cyclohexylpentanoate]: 69.97%.

The assay is the same for the next values; noted with them: inhibitor 5 μM, medium collected after 12 hours, ELISA.
For the molecule `O=C1NC(=O)/C(=C/c2ccc(OC(=O)C3CC3)cc2Cl)S1` [Compound 91, (Z)-3-chloro-4-((2,4-dioxothiazolidin-5-ylidene)methyl)phenyl cyclopropanecarboxylate], the PGE2 concentration came out at 106.5773 pg/mL.
Still for that read-out and setting: then `O=C(CCCC1CCCCC1)Oc1ccc(/C=C2\SC(=O)NC2=O)cc1Cl` [Compound 9, (Z)-2-chloro-4-((2,4-dioxothiazolidin-5-ylidene)methyl)phenyl 4-cyclohexylbutanoate], with 792.1232 pg/mL.
With `O=C(CCC1CCCC1)Oc1ccc(/C=C2\SC(=O)NC2=O)cc1Cl` [Compound 5, (Z)-2-chloro-4-((2,4-dioxothiazolidin-5-ylidene)methyl)phenyl 3-cyclopentylpropanoate], the PGE2 concentration was 501.1889 pg/mL.
Take `COc1cc(/C=C2\SC(=O)NC2=O)ccc1OC(=O)CCCC1CCCCC1` [Compound 39, (Z)-4-((2,4-dioxothiazolidin-5-ylidene)methyl)-2-methoxyphenyl 4-cyclohexylbutanoate]: the PGE2 concentration worked out at 649.318 pg/mL.
For the molecule `O=C(O)c1ccccc1.O=C1NC(=O)/C(=C/c2ccc(OC(=O)c3ccccc3)cc2Cl)S1` [Compound 101, (Z)-3-chloro-4-((2,4-dioxothiazolidin-5-ylidene)methyl)phenyl benzoate], the PGE2 concentration is 200.4108 pg/mL.
As for `O=C(CCCCc1ccccc1)Oc1ccc(/C=C2\SC(=O)NC2=O)cc1Cl` [Compound 15, (Z)-2-chloro-4-((2,4-dioxothiazolidin-5-ylidene)methyl)phenyl 5-phenylpentanoate], the PGE2 concentration turned out to be 220.3344 pg/mL.
For the molecule `CCOc1cc(/C=C2\SC(=O)NC2=O)ccc1OC(=O)CCCCc1ccccc1` [Compound 60, (Z)-4-((2,4-dioxothiazolidin-5-ylidene)methyl)-2-ethoxyphenyl 5-phenylpentanoate], the PGE2 concentration stood at 300.5549 pg/mL.
On to `O=C1NC(=O)/C(=C/c2ccc(OC(=O)C3CCCC3)c(Br)c2)S1` [Compound 18, (Z)-2-bromo-4-((2,4-dioxothiazolidin-5-ylidene)methyl)phenyl cyclopentanecarboxylate], for which the PGE2 concentration is 198.1274 pg/mL.
Turning to `O=C(CCc1ccccc1)Oc1cccc(/C=C2\SC(=O)NC2=O)c1Cl` [Compound 88, (Z)-2-chloro-3-((2,4-dioxothiazolidin-5-ylidene)methyl)phenyl 3-phenylpropanoate], the PGE2 concentration stood at 449.1671 pg/mL.
`O=C(O)c1ccccc1.O=C1NC(=O)/C(=C/c2ccc(OC(=O)c3ccccc3)c(Cl)c2)S1` [Compound 11, (Z)-2-chloro-4-((2,4-dioxothiazolidin-5-ylidene)methyl)phenyl benzoate] registered a PGE2 concentration of 25.95 pg/mL.
`O=C(CCCCC1CCCCC1)Oc1ccc(/C=C2\SC(=O)NC2=O)cc1` [Compound 70, (Z)-4-((2,4-dioxothiazolidin-5-ylidene)methyl)phenyl 5-cyclohexylpentanoate] gave a PGE2 concentration of 219.5565 pg/mL.

Values taken from patent US10787425B2, “Thiazolidinedione derivative and use thereof” (INDUSTRY-ACADEMIC COOPERATION FOUNDATION CHOSUN UNIVERSITY, priority 2016, dated 2020).
